System: INS1 cells
Assay: RNAseq of INS1 cells grown in chronic high glucose compared to controls and stimulated with FSK (Table 2)
Assay type: cell-based, rat
Procedure: INS-1 insulinoma cells were cultured in RPMI (corning cellgro) containing 10% fetal bovine serum (Gemini Bio Products), 100 μg/mL penicillin-streptomycin and 1 mM sodium pyruvate (corning cellgro). MIN6 cells were grown in DMEM (corning cellgro) with 10% FBS, 100 μg/mL penicillin-streptomycin and 70 uM beta-mercaptoethanol. For chronic glucose experiments, cells were maintained under low (2.8 mM) or high (20 mM) glucose for 3 days. Exendin-4 (10 nM), Forskolin (10 μM), KCl (40 mM), DMOG (1 mM) and rapamycin (50 nM) were added to cells as indicated. Cellular cAMP levels were measured using an ELISA kit (Cayman Chemical Company) according to manufacturer's instructions. Total RNAs from cells or primary islets were extracted using Trizol and cDNA was generated using the Transcriptor First Strand cDNA Synthesis kit (Roche Applied Science). cDNAs were quantified on a lightcycler 480 instrument (Roche Applied Science). Gene expression data were presented relative to the expression of housekeeping gene L32 (rat samples) and 18S (mouse and human islets). RNA-Seq libraries were prepared using the mRNA isolation protocol and the NEBNext-Ultra kits from New England Biolabs following the manufacturer's protocols. Libraries were quantitated by Qubit (Invitrogen), and run on a MiSeq instrument with paired-end 75 bp reads using v3 chemistry (Illumina) Data were analyzed by tophat2 and cuffdiff against the mouse mm10 genome build. The GEO accession number for RNAseq studies reported in the paper is GSE60158.

## C=C[C@@]1(C)CC(=O)[C@]2(O)[C@@]3(C)[C@@H](O)CCC(C)(C)[C@@H]3[C@H](O)[C@H](OC(C)=O)[C@@]2(C)O1 [FSK, Forskolin]
High glucose, FSK
  Accsl RNAseq value: 0.1
  Acpt RNAseq value: 0.2
  Acsl4 RNAseq value: 24.1
  Agt RNAseq value: 4.7
  Ahi1 RNAseq value: 18.6
  Bhlha15 RNAseq value: 10.9
  Btg3 RNAseq value: 63.0
  Bysl RNAseq value: 56.8
  Canx RNAseq value: 134.4
  Ccni RNAseq value: 240.1
  Chd1 RNAseq value: 24.3
  Chrne RNAseq value: 0.0
  Ctf1 RNAseq value: 0.4
  Cxcl2 RNAseq value: 1.2
  Cyth3 RNAseq value: 54.2
  Dkc1 RNAseq value: 97.6
  Epha3 RNAseq value: 0.0
  Epor RNAseq value: 0.1
  Fam49a RNAseq value: 0.1
  Ficd RNAseq value: 15.9
  Fmc1 RNAseq value: 28.5
  Fn1 RNAseq value: 320.4
  Gabre RNAseq value: 0.0
  Gars RNAseq value: 308.1
  Ggt5 RNAseq value: 0.0
  Gnl3 RNAseq value: 23.1
  Gnmt RNAseq value: 0.0
  Gzmm RNAseq value: 0.0
  Hmcn1 RNAseq value: 0.0
  Hmga2 RNAseq value: 0.0
  Hnrnpa1 RNAseq value: 35.4
  Hnrpdl RNAseq value: 165.3
  Hs3st2 RNAseq value: 1.0
  Hspa4 RNAseq value: 113.8
  Hspd1 RNAseq value: 63.0
  Icam2 RNAseq value: 0.0
  Il13ra1 RNAseq value: 0.2
  Il28ra RNAseq value: 6.8
  Kcnb1 RNAseq value: 13.1
  Kcnj13 RNAseq value: 0.8
  Kdm1b RNAseq value: 8.1
  Kif9 RNAseq value: 0.0
  LOC683722 RNAseq value: 7.9
  LOC686295 RNAseq value: 3.8
  LOC689959 RNAseq value: 7.2
  Lrfn5 RNAseq value: 0.2
  Map3k4 RNAseq value: 22.7
  Mef2d RNAseq value: 175.0
  Megf10 RNAseq value: 0.2
  Msn RNAseq value: 3.2
  Myof RNAseq value: 0.1
  Nckap1l RNAseq value: 1.8
  Nkx2-2 RNAseq value: 93.4
  Nolc1 RNAseq value: 192.8
  Notch4 RNAseq value: 0.6
  Ormdl3 RNAseq value: 128.5
  Otop3 RNAseq value: 0.0
  Pabpc6 RNAseq value: 0.1
  Pde3b RNAseq value: 45.5
  Pde4dip RNAseq value: 29.3
  Pdrg1 RNAseq value: 28.6
  Plcb2 RNAseq value: 0.0
  RGD1309079 RNAseq value: 0.8
  RGD1311084 RNAseq value: 0.0
  Rab3gap2 RNAseq value: 29.1
  Rab11fip1 RNAseq value: 8.3
  Rap2a RNAseq value: 12.9
  Rho RNAseq value: 0.1
  Rpl7a RNAseq value: 0.7
  Rpl17 RNAseq value: 126.3
  Rrs1 RNAseq value: 71.4
  Sgce RNAseq value: 0.3
  Smad1 RNAseq value: 29.8
  Smad3 RNAseq value: 1.6
  Snapc1 RNAseq value: 2.7
  Sncaip RNAseq value: 4.9
  Spon2 RNAseq value: 0.3
  Srp54 RNAseq value: 27.8
  Stard8 RNAseq value: 0.4
  Syp RNAseq value: 447.7
  T2 RNAseq value: 0.1
  Taf1a RNAseq value: 6.7
  Tex38 RNAseq value: 0.1
  Tmem114 RNAseq value: 0.0
  Tomm20 RNAseq value: 70.0
  Tpp2 RNAseq value: 12.3
  Twistnb RNAseq value: 9.1
  Usp9x RNAseq value: 40.0
  Vps37b RNAseq value: 32.2
  Zfp830 RNAseq value: 17.0
  Zfp385d RNAseq value: 0.1
High glucose, FSK/control
  Accsl Fold: 0.9
  Acpt Fold: 3.0
  Acsl4 Fold: 1.6
  Agt Fold: 1.8
  Ahi1 Fold: 1.5
  Bhlha15 Fold: 1.1
  Btg3 Fold: 1.2
  Bysl Fold: 1.5
  Canx Fold: 1.1
  Ccni Fold: 1.5
  Chd1 Fold: 1.4
  Chrne Fold: 0.0
  Ctf1 Fold: 1.8
  Cxcl2 Fold: 3.2
  Cyth3 Fold: 3.2
  Dkc1 Fold: 1.2
  Epha3 Fold: 0.5
  Epor Fold: 1.0
  Fam49a Fold: 1.0
  Ficd Fold: 1.2
  Fmc1 Fold: 1.1
  Fn1 Fold: 2.7
  Gars Fold: 1.8
  Gnl3 Fold: 1.3
  Gzmm Fold: 0.0
  Hmcn1 Fold: 0.3
  Hmga2 Fold: 0.0
  Hnrnpa1 Fold: 1.4
  Hnrpdl Fold: 1.5
  Hs3st2 Fold: 2.6
  Hspa4 Fold: 1.2
  Hspd1 Fold: 1.0
  Icam2 Fold: 0.0
  Il13ra1 Fold: 1.0
  Il28ra Fold: 1.7
  Kcnb1 Fold: 0.8
  Kcnj13 Fold: 3.0
  Kdm1b Fold: 1.4
  Kif9 Fold: 0.7
  LOC683722 Fold: 1.8
  LOC686295 Fold: 1.3
  LOC689959 Fold: 0.9
  Lrfn5 Fold: 1.2
  Map3k4 Fold: 1.3
  Mef2d Fold: 1.8
  Msn Fold: 1.0
  Myof Fold: 0.6
  Nckap1l Fold: 0.9
  Nkx2-2 Fold: 2.2
  Nolc1 Fold: 1.2
  Notch4 Fold: 1.7
  Ormdl3 Fold: 1.1
  Otop3 Fold: 0.0
  Pabpc6 Fold: 4.4
  Pde3b Fold: 1.9
  Pde4dip Fold: 1.4
  Pdrg1 Fold: 1.0
  Plcb2 Fold: 1.0
  RGD1309079 Fold: 1.3
  Rab3gap2 Fold: 1.3
  Rab11fip1 Fold: 1.9
  Rap2a Fold: 2.2
  Rho Fold: 0.7
  Rpl7a Fold: 2.5
  Rpl17 Fold: 1.0
  Rrs1 Fold: 1.5
  Sgce Fold: 0.8
  Smad1 Fold: 1.4
  Smad3 Fold: 0.7
  Snapc1 Fold: 1.2
  Sncaip Fold: 1.4
  Spon2 Fold: 0.7
  Srp54 Fold: 1.1
  Stard8 Fold: 2.3
  Syp Fold: 1.5
  T2 Fold: 0.7
  Taf1a Fold: 1.3
  Tex38 Fold: 0.3
  Tomm20 Fold: 1.4
  Tpp2 Fold: 1.3
  Twistnb Fold: 1.5
  Usp9x Fold: 1.5
  Vps37b Fold: 1.3
  Zfp830 Fold: 1.1
  Zfp385d Fold: 0.2
Low glucose, FSK
  Accsl RNAseq value: 0.3
  Acpt RNAseq value: 0.3
  Acsl4 RNAseq value: 28.6

Source: patent US10258639B2, “Methods for treating insulin resistance and for sensitizing patients to GLP1 agonist therapy” (Research Development Foundation, priority 2014, dated 2019)
